Each compound was assayed against T1, CDK1/Cyclin B (Homo sapiens, UniProt P06493) (assay: Enzymatic assay for CDK1 (FRET based LANCE Ultra kinase assay)). Conditions: read-out: CDK1 enzymatic activity (IC50 range).
T1 construct: purchased Invitrogen PR4768C
Type: biochemical
Outline: (§1)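 LANCE Ultra TR-FRET: ULight-MBP peptide (68 nM) with ATP at Km, […], 60 min at 23° C. EDTA plus Eu-anti-phospho-MBP added, another 60 min, then 665/615 nm emission read. Compounds tested as 8-dose 4-fold DMSO dilutions.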

T1 sequence (P06493 whole entry): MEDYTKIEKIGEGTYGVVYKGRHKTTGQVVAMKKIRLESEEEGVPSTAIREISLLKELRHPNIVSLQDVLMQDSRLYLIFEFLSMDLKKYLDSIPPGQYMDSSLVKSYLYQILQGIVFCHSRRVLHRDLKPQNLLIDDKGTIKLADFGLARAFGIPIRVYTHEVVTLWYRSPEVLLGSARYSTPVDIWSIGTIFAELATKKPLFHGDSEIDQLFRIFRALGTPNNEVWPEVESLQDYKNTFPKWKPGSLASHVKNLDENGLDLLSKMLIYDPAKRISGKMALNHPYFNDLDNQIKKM
T1 sequence (P14635 whole entry partner): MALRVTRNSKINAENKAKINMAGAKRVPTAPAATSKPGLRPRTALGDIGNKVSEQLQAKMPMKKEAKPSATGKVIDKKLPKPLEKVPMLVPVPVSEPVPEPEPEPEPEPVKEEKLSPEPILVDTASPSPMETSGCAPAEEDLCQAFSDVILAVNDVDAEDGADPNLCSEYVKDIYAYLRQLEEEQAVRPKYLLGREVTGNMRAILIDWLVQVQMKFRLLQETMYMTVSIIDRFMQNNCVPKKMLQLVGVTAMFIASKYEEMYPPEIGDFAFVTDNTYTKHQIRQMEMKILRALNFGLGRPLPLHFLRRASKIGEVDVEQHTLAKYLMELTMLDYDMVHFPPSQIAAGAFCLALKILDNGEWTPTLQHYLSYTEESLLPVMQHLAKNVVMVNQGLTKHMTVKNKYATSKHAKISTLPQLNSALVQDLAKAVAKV

IC50	SMILES
0.1 to 1 µM	CC(C)CC(=O)Nc1cccc2cc(-c3ccccc3CNc3nc(N4CCC(N)CC4)nc4c(C(C)C)cnn34)[nH]c12 [Compound 145]
0.1 to 1 µM	CC(C)c1cnn2c(NCc3ccccc3-n3cc4cc(C(N)=O)ccc4n3)nc(N3CCC(N)CC3)nc12 [Compound 146]
> 1 µM	CC(C)c1cnn2c(NCc3ccccc3-n3cc4cc(C(=O)N5CCCC5)ccc4n3)nc(N3CCC(N)CC3)nc12 [Compound 147]

Each compound was assayed against T2, CDK2/Cyclin A (Homo sapiens, UniProt P24941) (assay: Enzymatic assay for CDK2 (FRET based LANCE Ultra kinase assay)). Conditions: read-out: CDK2 enzymatic activity (IC50 range).
T2 construct: purchased Invitrogen PV6290
Type: biochemical
Outline: as §1

IC50	SMILES
0.1 to 1 µM	CC(C)CC(=O)Nc1cccc2cc(-c3ccccc3CNc3nc(N4CCC(N)CC4)nc4c(C(C)C)cnn34)[nH]c12 [Compound 145]
0.1 to 1 µM	CC(C)c1cnn2c(NCc3ccccc3-n3cc4cc(C(N)=O)ccc4n3)nc(N3CCC(N)CC3)nc12 [Compound 146]
> 1 µM	CC(C)c1cnn2c(NCc3ccccc3-n3cc4cc(C(=O)N5CCCC5)ccc4n3)nc(N3CCC(N)CC3)nc12 [Compound 147]

These compounds were tested against T3, CDK5/p25 (Homo sapiens, UniProt Q00535) (assay: Enzymatic assay for CDK5 (FRET based LANCE Ultra kinase assay)). Conditions: read-out: CDK5 enzymatic activity (IC50 range).
T3 construct: purchased Invitrogen PR8543B
Type: biochemical
Outline: as §1

T3 sequence (Q00535 whole entry): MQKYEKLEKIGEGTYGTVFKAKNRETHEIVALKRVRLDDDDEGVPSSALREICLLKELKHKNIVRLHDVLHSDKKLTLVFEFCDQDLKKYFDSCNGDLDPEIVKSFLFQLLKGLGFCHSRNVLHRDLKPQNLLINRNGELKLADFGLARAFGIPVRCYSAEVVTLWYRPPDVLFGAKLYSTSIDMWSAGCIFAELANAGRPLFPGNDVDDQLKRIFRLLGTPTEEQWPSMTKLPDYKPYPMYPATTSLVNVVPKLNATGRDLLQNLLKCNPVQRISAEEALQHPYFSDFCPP
T3 sequence (Q15078 99-307 partner limits assumed): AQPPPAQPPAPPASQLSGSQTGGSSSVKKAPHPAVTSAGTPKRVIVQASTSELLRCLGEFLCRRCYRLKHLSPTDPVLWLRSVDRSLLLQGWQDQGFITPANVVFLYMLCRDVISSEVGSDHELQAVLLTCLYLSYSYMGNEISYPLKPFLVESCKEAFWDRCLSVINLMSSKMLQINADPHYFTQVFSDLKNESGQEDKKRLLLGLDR

IC50	SMILES
< 0.1 µM	CC(C)CC(=O)Nc1cccc2cc(-c3ccccc3CNc3nc(N4CCC(N)CC4)nc4c(C(C)C)cnn34)[nH]c12 [Compound 145]
0.1 to 1 µM	CC(C)c1cnn2c(NCc3ccccc3-n3cc4cc(C(N)=O)ccc4n3)nc(N3CCC(N)CC3)nc12 [Compound 146]
0.1 to 1 µM	CC(C)c1cnn2c(NCc3ccccc3-n3cc4cc(C(=O)N5CCCC5)ccc4n3)nc(N3CCC(N)CC3)nc12 [Compound 147]

What follows are compounds tested against T4, CDK7/Cyclin H/MNAT1 (Homo sapiens, UniProt P50613) (assay: Enzymatic assay for CDK7 (FRET based LANCE Ultra kinase assay)). Conditions: CDK7 over CDK1.
T4 construct: purchased Invitrogen PR6749B
Type: biochemical
Outline: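 LANCE Ultra TR-FRET kinase assay using a ULight-labeled peptide substrate and a Eu-labeled anti-phospho antibody, with ATP at its Km. Purified CDK/cyclin complex was added to compound after brief centrifugation.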

T4 sequence (P50613 whole entry): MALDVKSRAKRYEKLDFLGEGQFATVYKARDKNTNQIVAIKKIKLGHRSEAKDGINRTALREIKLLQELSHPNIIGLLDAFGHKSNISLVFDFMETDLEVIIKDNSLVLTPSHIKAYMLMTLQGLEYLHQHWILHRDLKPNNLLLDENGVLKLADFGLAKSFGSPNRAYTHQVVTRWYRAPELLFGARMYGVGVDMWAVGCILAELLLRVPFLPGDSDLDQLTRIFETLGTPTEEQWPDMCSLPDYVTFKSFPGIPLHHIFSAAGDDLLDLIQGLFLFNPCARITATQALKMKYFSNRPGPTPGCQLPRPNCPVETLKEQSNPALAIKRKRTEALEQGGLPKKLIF
T4 sequence (P51946 whole entry partner): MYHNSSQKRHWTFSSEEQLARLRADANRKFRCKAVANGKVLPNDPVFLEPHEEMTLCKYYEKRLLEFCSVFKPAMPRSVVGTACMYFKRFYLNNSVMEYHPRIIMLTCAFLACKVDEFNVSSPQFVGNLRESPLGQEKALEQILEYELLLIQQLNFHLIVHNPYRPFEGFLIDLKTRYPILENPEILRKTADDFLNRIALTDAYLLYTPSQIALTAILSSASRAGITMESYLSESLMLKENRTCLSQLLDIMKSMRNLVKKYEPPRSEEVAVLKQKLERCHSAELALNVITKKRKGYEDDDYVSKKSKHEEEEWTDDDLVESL
T4 sequence (P51948 whole entry partner): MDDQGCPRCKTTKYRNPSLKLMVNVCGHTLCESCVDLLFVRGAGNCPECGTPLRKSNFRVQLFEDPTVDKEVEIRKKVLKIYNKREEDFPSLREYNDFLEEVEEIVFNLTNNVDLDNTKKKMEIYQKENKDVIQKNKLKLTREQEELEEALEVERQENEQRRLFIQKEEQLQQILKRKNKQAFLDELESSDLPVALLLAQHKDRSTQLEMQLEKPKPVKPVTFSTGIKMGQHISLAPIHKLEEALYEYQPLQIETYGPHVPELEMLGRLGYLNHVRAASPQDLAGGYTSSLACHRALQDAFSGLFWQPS

CDK1/CDK7: Selectivity of CDK7 inhibition over CDK1 inhibition	SMILES
A (A=greater than 200 fold)	CC(C)c1cnn2c(NCc3ccccc3-n3cc4cc(C(N)=O)ccc4n3)nc(N3CCC(N)CC3)nc12 [Compound 146]
A (A=greater than 200 fold)	CC(C)c1cnn2c(NCc3ccccc3-n3cc4cc(C(=O)N5CCCC5)ccc4n3)nc(N3CCC(N)CC3)nc12 [Compound 147]

SMILES	CDK1/CDK7: Selectivity of CDK7 inhibition over CDK1 inhibition
CC(C)CC(=O)Nc1cccc2cc(-c3ccccc3CNc3nc(N4CCC(N)CC4)nc4c(C(C)C)cnn34)[nH]c12 [Compound 145]	B (B=less than 200 fold, but greater than 20 fold)

Same assay, conditions: CDK7 over CDK2

SMILES	CDK2/CDK7: Selectivity of CDK7 inhibition over CDK2 inhibition
CC(C)CC(=O)Nc1cccc2cc(-c3ccccc3CNc3nc(N4CCC(N)CC4)nc4c(C(C)C)cnn34)[nH]c12 [Compound 145]	B (B=less than 200 fold, but greater than 20 fold)
CC(C)c1cnn2c(NCc3ccccc3-n3cc4cc(C(N)=O)ccc4n3)nc(N3CCC(N)CC3)nc12 [Compound 146]	A (A=greater than 200 fold)
CC(C)c1cnn2c(NCc3ccccc3-n3cc4cc(C(=O)N5CCCC5)ccc4n3)nc(N3CCC(N)CC3)nc12 [Compound 147]	B (B=less than 200 fold, but greater than 20 fold)

Same assay, conditions: CDK7 over CDK5

SMILES	CDK5/CDK7: Selectivity of CDK7 inhibition over CDK5 inhibition
CC(C)CC(=O)Nc1cccc2cc(-c3ccccc3CNc3nc(N4CCC(N)CC4)nc4c(C(C)C)cnn34)[nH]c12 [Compound 145]	C (C=less than 20 fold)
CC(C)c1cnn2c(NCc3ccccc3-n3cc4cc(C(N)=O)ccc4n3)nc(N3CCC(N)CC3)nc12 [Compound 146]	B (B=less than 200 fold, but greater than 20 fold)
CC(C)c1cnn2c(NCc3ccccc3-n3cc4cc(C(=O)N5CCCC5)ccc4n3)nc(N3CCC(N)CC3)nc12 [Compound 147]	B (B=less than 200 fold, but greater than 20 fold)

Same assay, conditions: read-out: CDK7 enzymatic activity (IC50 range)

IC50	SMILES
< 0.1 µM	CC(C)CC(=O)Nc1cccc2cc(-c3ccccc3CNc3nc(N4CCC(N)CC4)nc4c(C(C)C)cnn34)[nH]c12 [Compound 145]
< 0.1 µM	CC(C)c1cnn2c(NCc3ccccc3-n3cc4cc(C(N)=O)ccc4n3)nc(N3CCC(N)CC3)nc12 [Compound 146]
< 0.1 µM	CC(C)c1cnn2c(NCc3ccccc3-n3cc4cc(C(=O)N5CCCC5)ccc4n3)nc(N3CCC(N)CC3)nc12 [Compound 147]

What follows are compounds tested on HCT116 (assay: Cellular HCT116 viability assay (CellTiter-Glo, 72 hours)). Conditions: Homo sapiens, HCT-116.
Type: cell-based
Outline: (§2)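 72 h treatment, 37 °C, 5% CO2; DMSO ctrl, final <0.1%; CellTiter-Glo luminescence; n=2.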

IC50	SMILES
< 1 µM	CC(C)CC(=O)Nc1cccc2cc(-c3ccccc3CNc3nc(N4CCC(N)CC4)nc4c(C(C)C)cnn34)[nH]c12 [Compound 145]
< 1 µM	CC(C)c1cnn2c(NCc3ccccc3-n3cc4cc(C(N)=O)ccc4n3)nc(N3CCC(N)CC3)nc12 [Compound 146]
< 1 µM	CC(C)c1cnn2c(NCc3ccccc3-n3cc4cc(C(=O)N5CCCC5)ccc4n3)nc(N3CCC(N)CC3)nc12 [Compound 147]

These compounds were tested on H460 (assay: Cellular H460 viability assay (CellTiter-Glo, 72 hours)). Conditions: Homo sapiens, NCI-H460.
Type: cell-based
Outline: as §2

IC50	SMILES
< 1 µM	CC(C)CC(=O)Nc1cccc2cc(-c3ccccc3CNc3nc(N4CCC(N)CC4)nc4c(C(C)C)cnn34)[nH]c12 [Compound 145]
< 1 µM	CC(C)c1cnn2c(NCc3ccccc3-n3cc4cc(C(N)=O)ccc4n3)nc(N3CCC(N)CC3)nc12 [Compound 146]
< 1 µM	CC(C)c1cnn2c(NCc3ccccc3-n3cc4cc(C(=O)N5CCCC5)ccc4n3)nc(N3CCC(N)CC3)nc12 [Compound 147]

What follows are compounds tested on MV4-11 (assay: Cellular MV4-11 viability assay (CellTiter-Glo, 72 hours)). Conditions: Homo sapiens.
Type: cell-based
Outline: as §2

IC50	SMILES
< 1 µM	CC(C)CC(=O)Nc1cccc2cc(-c3ccccc3CNc3nc(N4CCC(N)CC4)nc4c(C(C)C)cnn34)[nH]c12 [Compound 145]
< 1 µM	CC(C)c1cnn2c(NCc3ccccc3-n3cc4cc(C(N)=O)ccc4n3)nc(N3CCC(N)CC3)nc12 [Compound 146]
< 1 µM	CC(C)c1cnn2c(NCc3ccccc3-n3cc4cc(C(=O)N5CCCC5)ccc4n3)nc(N3CCC(N)CC3)nc12 [Compound 147]

What follows are compounds tested on MOLT-4 (assay: Cellular MOLT-4 viability assay (CellTiter-Glo, 72 hours)). Conditions: Homo sapiens, MOLT4 viability assay.
Type: cell-based
Outline: as §2

IC50	SMILES
1 to 10 µM	CC(C)c1cnn2c(NCc3ccccc3-n3ncc4ccccc43)nc(N3CCC(N)CC3)nc12 [Compound 58]

Each compound was assayed on RPMI-8226 (assay: Cellular RPMI-8226 viability assay (CellTiter-Glo, 72 hours)). Conditions: Homo sapiens.
Type: cell-based
Method: All cell lines were routinely tested for mycoplasma.
The effect of the CDK7 inhibitor to inhibit the growth of target cancer cells was evaluated through the 72 hours time period of viability assay. Briefly, the candidate cell line ware plated in 96 well plate at the following density of cells respectively. […] DMSO solvent without compound served as a control and final DMSO concentration less than 0.1%. After 72 hours of incubation at 37° C., 5% CO2 incubator, cells were analyzed for the viability using the CellTiter-Glo Luminescent Cell Viability Assay (Promega, Cat #G7570). All viability assays were performed in duplicate and Luminescence was read using an Envision (Perkin Elmer, USA). Data was analyzed using XLfit software.

IC50	SMILES
1 to 10 µM	CC(C)c1cnn2c(NCc3ccccc3-n3ncc4ccccc43)nc(N3CCC(N)CC3)nc12 [Compound 58]
< 1 µM	CC(C)CC(=O)Nc1cccc2cc(-c3ccccc3CNc3nc(N4CCC(N)CC4)nc4c(C(C)C)cnn34)[nH]c12 [Compound 145]
< 1 µM	CC(C)c1cnn2c(NCc3ccccc3-n3cc4cc(C(N)=O)ccc4n3)nc(N3CCC(N)CC3)nc12 [Compound 146]
1 to 10 µM	CC(C)c1cnn2c(NCc3ccccc3-n3cc4cc(C(=O)N5CCCC5)ccc4n3)nc(N3CCC(N)CC3)nc12 [Compound 147]

— patent publication US11945822B2, “Pyrazolo-triazine and/or pyrazolo-pxrimidine derivatives as selective inhibitor of cyclin dependent kinase” (QURIENT CO., LTD., priority 2018, dated 2024)
